The source made the active and inactive calls. No cut-off for these calls is given here.
Key:
[1] = target: T1, Cholesterol 24-hydroxylase (Homo sapiens, UniProt Q9Y6A2); experiment: Stimulation of full-length recombinant human CYP46A1 assessed as cholesterol hydroxylation at 43 uM using cholesterol as substrate in presence of NADPH cytochrome P450 oxidoreductase by gas chromatography-mass spectrometry
Target sequence in this assay (Q9Y6A2 whole entry, looked up): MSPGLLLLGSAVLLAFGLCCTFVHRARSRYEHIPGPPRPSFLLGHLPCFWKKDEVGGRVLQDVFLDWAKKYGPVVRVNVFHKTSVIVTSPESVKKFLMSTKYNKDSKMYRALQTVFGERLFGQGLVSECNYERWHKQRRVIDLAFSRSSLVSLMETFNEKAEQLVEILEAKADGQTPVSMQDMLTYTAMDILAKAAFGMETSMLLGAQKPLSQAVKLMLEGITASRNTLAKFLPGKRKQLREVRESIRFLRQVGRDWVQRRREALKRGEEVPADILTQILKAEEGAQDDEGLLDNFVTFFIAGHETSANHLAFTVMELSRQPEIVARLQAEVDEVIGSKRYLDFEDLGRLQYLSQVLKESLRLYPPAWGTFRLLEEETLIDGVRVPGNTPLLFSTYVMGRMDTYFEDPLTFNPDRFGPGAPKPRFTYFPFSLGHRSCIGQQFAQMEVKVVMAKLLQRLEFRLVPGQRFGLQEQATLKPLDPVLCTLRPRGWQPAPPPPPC

[2] = target: T1, Cholesterol 24-hydroxylase; experiment: Inhibition of full-length recombinant human CYP46A1 assessed as cholesterol hydroxylation using cholesterol as substrate in presence of NADPH cytochrome P450 oxidoreductase by gas chromatography-mass spectrometry
Target sequence in this assay (Q9Y6A2 whole entry): as the sequence (Q9Y6A2 whole entry, looked up) above

Mus musculus [3] = species: Mus musculus; conditions: C57/B6J, 60 mg/kg
[4] = target: T2, Sterol 26-hydroxylase, mitochondrial (Homo sapiens) (UniProt Q02318); experiment: Binding affinity to full-length recombinant human CYP27A1 assessed as induction of spectral shift up to 100 uM by spectral binding study
T2 sequence (whole entry): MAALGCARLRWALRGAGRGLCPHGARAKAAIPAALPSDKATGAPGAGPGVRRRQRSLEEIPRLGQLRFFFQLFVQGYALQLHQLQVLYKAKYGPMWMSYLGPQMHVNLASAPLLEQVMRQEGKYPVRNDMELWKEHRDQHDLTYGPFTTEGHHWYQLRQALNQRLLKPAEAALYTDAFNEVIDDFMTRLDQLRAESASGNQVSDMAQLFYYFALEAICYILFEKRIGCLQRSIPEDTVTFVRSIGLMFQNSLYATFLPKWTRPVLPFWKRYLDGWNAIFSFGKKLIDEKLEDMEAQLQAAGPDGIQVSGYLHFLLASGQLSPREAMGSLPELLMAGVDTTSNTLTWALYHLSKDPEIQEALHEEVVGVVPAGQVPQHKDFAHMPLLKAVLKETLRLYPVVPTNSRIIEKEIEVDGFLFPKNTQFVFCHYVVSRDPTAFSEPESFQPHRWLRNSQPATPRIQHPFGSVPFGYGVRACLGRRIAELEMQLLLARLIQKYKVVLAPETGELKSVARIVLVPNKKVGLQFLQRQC

Mus musculus [5] = experiment: In-vivo inhibition of CYP46A1 in C57/B6J mouse plasma assessed as reduction in 24S-hydroxy cholesterol at 60 mg/kg, ip dosed qd for 5 days by isotope dilution mass-spectrometry relative to control; assay type: functional; conditions: 120 h
[6] = target: T1, Cholesterol 24-hydroxylase; experiment: Binding affinity to active site of full-length recombinant human CYP46A1 assessed as induction of type-II spectral response with minimum at 413 nm and maximum at 434 nm by spectral binding study
Target sequence in this assay (Q9Y6A2 whole entry, looked up): as the sequence (Q9Y6A2 whole entry, looked up) above

Mus musculus [7] = species: Mus musculus; conditions: C57/B6J, 75 mg/kg
[8] = target: T3, Cholesterol side-chain cleavage enzyme, mitochondrial (Bos taurus, UniProt P00189); experiment: Binding affinity to active site of bovine CYP11A1 assessed as induction of type-II spectral response by spectral binding study; conditions: cattle
T3 sequence (P00189 whole entry): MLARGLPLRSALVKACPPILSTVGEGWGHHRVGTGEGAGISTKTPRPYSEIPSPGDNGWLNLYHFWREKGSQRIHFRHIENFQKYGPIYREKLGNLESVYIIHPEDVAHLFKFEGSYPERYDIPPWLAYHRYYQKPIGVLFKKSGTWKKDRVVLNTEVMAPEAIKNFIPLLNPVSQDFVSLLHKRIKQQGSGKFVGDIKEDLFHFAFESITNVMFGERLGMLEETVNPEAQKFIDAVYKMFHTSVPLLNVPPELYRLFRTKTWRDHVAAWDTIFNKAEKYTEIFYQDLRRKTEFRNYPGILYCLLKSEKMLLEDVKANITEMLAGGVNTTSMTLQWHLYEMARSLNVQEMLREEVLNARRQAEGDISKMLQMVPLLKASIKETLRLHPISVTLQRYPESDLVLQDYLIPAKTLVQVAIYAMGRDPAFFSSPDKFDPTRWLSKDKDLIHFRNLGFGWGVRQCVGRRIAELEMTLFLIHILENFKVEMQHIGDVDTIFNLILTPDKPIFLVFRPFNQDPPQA

Mus musculus [9] = species: Mus musculus; conditions: C57/B6J, 60 mg/kg; remark: listed apart in the source
Description: In-vivo inhibition of CYP46A1 in C57/B6J mouse brain assessed as reduction in lathosterol level at 60 mg/kg, ip dosed qd for 5 days by isotope dilution mass-spectrometry relative to control

[10] = target: T1, Cholesterol 24-hydroxylase; experiment: Binding affinity to full-length recombinant human CYP46A1 by spectral binding study
Target sequence in this assay (Q9Y6A2 whole entry, looked up): as the sequence (Q9Y6A2 whole entry, looked up) above

Structure (SMILES)	Activity [1] [%]	other results
CC(=O)Nc1ccccc1O	103	
CC(=O)Nc1ccc(O)cc1	132	
CC(=O)Nc1cccc(O)c1	87	
CC(=O)[C@H]1CC[C@H]2[C@@H]3CC=C4C[C@@H](OS(=O)(=O)O)CC[C@]4(C)[C@H]3CC[C@]12C		Ki [2]: 2.5 µM
CC(=O)Nc1ccc(CO)cc1	112	
COc1ccc(NC(C)=O)cc1	100	
CCOc1ccc(NC(=O)CC)cc1	101	
C[C@@H](c1ncncc1F)[C@](O)(Cn1cncn1)c1ccc(F)cc1F [VORICONAZOLE]		inhibition (Mus musculus [3]): Active; Activity [4]: inactive; inhibition in vivo at 60 mg/kg (Mus musculus [5]): 30%; Activity [6]: Active; inhibition (Mus musculus [7]): Active; Activity [8]: Active; inhibition (Mus musculus [9]): Active
CCCCOc1ccc(NC(C)=O)cc1	107	
CC(=O)[C@H]1CC[C@H]2[C@@H]3CC=C4C[C@@H](O)CC[C@]4(C)[C@H]3CC[C@]12C		Activity [10]: inactive
CCOc1ccc(N)cc1	50	
CC(=O)Nc1ccc(C)cc1	112	
